Experimental data from ChEMBL document CHEMBL1158147, “Ultraviolet-mediated cytotoxic activity of phenylheptatriyne from Bidens pilosa L” (J Nat Prod, 1979).
Activity calls are given as the source filed them.

Experiments:
[1] = test system: Sporobolomyces; experiment: Phototoxicity against Sporobolomyces sp. Y138 at 10 ug/disk in presence of long wave UV light; format: functional, organism-based
[2] = test system: Microsporum canis; experiment: Phototoxicity against Microsporum canis at 10 ug/disk in dark; format: functional, organism-based
[3] = test system: Fusarium sp.; experiment: Phototoxicity against Fusarium sp. at 10 ug/disk in presence of long wave UV light; format: functional, organism-based
[4] = test system: DNA; experiment: Photochemical activity against denatured calf thymus DNA 10 ug after UV irradiation with 2.67 Joules/cm'2 for 30 mins at by hyperchromicity test; format: nucleic-acid assay; settings: Bos taurus
[5] = test system: Enterococcus faecalis; experiment: Phototoxicity against Streptococcus faecalis at 10 ug/disk in presence of cool-white fluorescent light; format: functional, organism-based
[6] = test system: Pseudomonas fluorescens; experiment: Phototoxicity against Pseudomonas fluorescens at 10 ug/disk in presence of long wave UV light; format: functional, organism-based
[7] = test system: Enterococcus faecalis; experiment: Phototoxicity against Streptococcus faecalis at 10 ug/disk in presence of long wave UV light; format: functional, organism-based
[8] = test system: DNA; experiment: Photochemical activity against denatured calf thymus DNA at 10 ug after UV irradiation with 16.00 Joules/cm'2 for 180 mins by hyperchromicity test; format: nucleic-acid assay; settings: Bos taurus
[9] = test system: Rhodotorula mucilaginosa; experiment: Phototoxicity against Rhodotorula rubra Y96 at 10 ug/disk in presence of long wave UV light; format: functional, organism-based
[10] = test system: Paraphyton cookei; experiment: Phototoxicity against Microsporum cookei at 10 ug/disk in dark; format: functional, organism-based
[11] = test system: Enterococcus faecalis; experiment: Phototoxicity against Streptococcus faecalis at 10 ug/disk in dark; format: functional, organism-based
[12] = test system: Kocuria rosea; experiment: Phototoxicity against Micrococcus roseus UBC 289 at 10 ug/disk in presence of long wave UV light; format: functional, organism-based
[13] = test system: Saccharomyces cerevisiae; experiment: Phototoxicity against Saccharomyces cerevisiae at 10 ug/disk in dark; format: functional, organism-based
[14] = test system: Escherichia coli; experiment: Phototoxicity against Escherichia coli at 10 ug/disk in dark; format: functional, organism-based
[15] = test system: Proteus mirabilis; experiment: Phototoxicity against Proteus mirabilis UBC 5 at 10 ug/disk in presence of long wave UV light; format: functional, organism-based
[16] = test system: Torula; experiment: Phototoxicity against Torula sp. at 10 ug/disk in presence of long wave UV light; format: functional, organism-based
[17] = test system: Nannizzia gypsea; experiment: Phototoxicity against Microsporum gypseum at 10 ug/disk in presence of long wave UV light; format: functional, organism-based
[18] = test system: Candida albicans; experiment: Phototoxicity against Candida albicans at 10 ug/disk in dark; format: functional, organism-based
[19] = test system: Candida albicans; experiment: Phototoxicity against Candida albicans at 5 ug/disk after UV irradiation for 180 mins; format: functional; settings: light or radiation study, 3 h, read-out: IZ
[20] = test system: Saccharomyces cerevisiae; experiment: Phototoxicity against Saccharomyces cerevisiae at 5 ug/disk after UV irradiation for 15 mins; format: functional; settings: light or radiation study, 0.25 h, read-out: IZ
[21] = test system: Paraphyton cookei; experiment: Phototoxicity against Microsporum cookei at 10 ug/disk in presence of long wave UV light; format: functional, organism-based
[22] = test system: Escherichia coli; experiment: Phototoxicity against Escherichia coli at 10 ug/disk in presence of long wave UV light; format: functional, organism-based
[23] = test system: DNA; experiment: Photochemical activity against denatured calf thymus DNA at 10 ug in dark after 30 mins by hyperchromicity test; format: nucleic-acid assay; settings: Bos taurus
[24] = test system: Nannizzia gypsea; experiment: Phototoxicity against Microsporum gypseum at 10 ug/disk in dark; format: functional, organism-based
[25] = test system: Fusarium sp.; experiment: Phototoxicity against Fusarium sp. at 10 ug/disk in dark; format: functional, organism-based
[26] = test system: Saccharomyces cerevisiae; experiment: Phototoxicity against Saccharomyces cerevisiae at 10 ug/disk in presence of cool-white fluorescent light; format: functional, organism-based
[27] = test system: Microsporum canis; experiment: Phototoxicity against Microsporum canis at 10 ug/disk in presence of long wave UV light; format: functional, organism-based
[28] = test system: Candida albicans; experiment: Phototoxicity against Candida albicans at 10 ug/disk in presence of cool-white fluorescent light; format: functional, organism-based
[29] = test system: Pseudomonas fluorescens; experiment: Phototoxicity against Pseudomonas fluorescens at 10 ug/disk in presence of cool-white fluorescent light; format: functional, organism-based
[30] = test system: Saccharomyces cerevisiae; experiment: Phototoxicity against Saccharomyces cerevisiae at 5 ug/disk after UV irradiation for 180 mins; format: functional; settings: light or radiation study, 3 h, read-out: IZ
[31] = test system: Staphylococcus epidermidis; experiment: Phototoxicity against Staphylococcus albus at 10 ug/disk in presence of cool-white fluorescent light; format: functional, organism-based
[32] = test system: DNA; experiment: Photochemical activity against denatured calf thymus DNA at in dark after 180 mins by hyperchromicity test; format: nucleic-acid assay; settings: Bos taurus
[33] = test system: Trichophyton mentagrophytes; experiment: Phototoxicity against Trichophyton mentagrophytes at 10 ug/disk in dark; format: functional, organism-based
[34] = test system: Paraphyton cookei; experiment: Phototoxicity against Microsporum cookei at 10 ug/disk in presence of cool-white fluorescent light; format: functional, organism-based
[35] = test system: Torula; experiment: Phototoxicity against Torula sp. at 10 ug/disk in dark; format: functional, organism-based
[36] = test system: Trichophyton mentagrophytes; experiment: Phototoxicity against Trichophyton mentagrophytes at 10 ug/disk in presence of long wave UV light; format: functional, organism-based
[37] = test system: Kocuria rosea; experiment: Phototoxicity against Micrococcus roseus UBC 289 at 10 ug/disk in dark; format: functional, organism-based
[38] = test system: Candida albicans; experiment: Phototoxicity against Candida albicans at 5 ug/disk after UV irradiation for 30 mins; format: functional; settings: light or radiation study, 0.5 h, read-out: IZ
[39] = test system: Staphylococcus epidermidis; experiment: Phototoxicity against Staphylococcus albus at 10 ug/disk in dark; format: functional, organism-based
[40] = test system: DNA; experiment: Photochemical activity against denatured calf thymus DNA at 10 ug by hyperchromicity test; format: nucleic-acid assay; settings: Bos taurus
[41] = test system: Escherichia coli; experiment: Phototoxicity against Escherichia coli at 10 ug/disk in presence of cool-white fluorescent light; format: functional, organism-based
[42] = test system: DNA; experiment: Photochemical activity against denatured calf thymus DNA at 10 ug in dark after 60 mins by hyperchromicity test; format: nucleic-acid assay; settings: Bos taurus; note: unit not given here
[43] = test system: Candida albicans; experiment: Phototoxicity against Candida albicans at 10 ug/disk in presence of long wave UV light; format: functional, organism-based
[44] = test system: Bacillus subtilis; experiment: Phototoxicity against Bacillus subtilis at 10 ug/disk in presence of long wave UV light; format: functional, organism-based
[45] = test system: Proteus mirabilis; experiment: Phototoxicity against Proteus mirabilis UBC 5 at 10 ug/disk in dark; format: functional, organism-based
[46] = test system: DNA; experiment: Photochemical activity against denatured calf thymus DNA at 10 ug after UV irradiation with 5.33 Joules/cm'2 for 60 mins by hyperchromicity test; format: nucleic-acid assay; settings: Bos taurus
[47] = test system: Saccharomyces cerevisiae; experiment: Phototoxicity against Saccharomyces cerevisiae at 10 ug/disk in presence of long wave UV light; format: functional, organism-based
[48] = test system: DNA; experiment: Photochemical activity against denatured calf thymus DNA at in dark after 120 mins by hyperchromicity test; format: nucleic-acid assay; settings: Bos taurus; note: unit not given here
[49] = test system: Saccharomyces cerevisiae; experiment: Phototoxicity against Saccharomyces cerevisiae at 5 ug/disk after UV irradiation for 30 mins; format: functional; settings: light or radiation study, 0.5 h, read-out: IZ
[50] = test system: Trichophyton mentagrophytes; experiment: Phototoxicity against Trichophyton mentagrophytes at 10 ug/disk in presence of cool-white fluorescent light; format: functional, organism-based
[51] = test system: Fusarium sp.; experiment: Phototoxicity against Fusarium sp. at 10 ug/disk in presence of cool-white fluorescent light; format: functional, organism-based
[52] = test system: Candida albicans; experiment: Phototoxicity against Candida albicans at 5 ug/disk after UV irradiation for 15 mins; format: functional; settings: light or radiation study, 0.25 h, read-out: IZ
[53] = test system: Rhodotorula mucilaginosa; experiment: Phototoxicity against Rhodotorula rubra Y96 at 10 ug/disk in dark; format: functional, organism-based
[54] = test system: DNA; experiment: Photochemical activity against denatured calf thymus DNA at 10 ug in dark by hyperchromicity test; format: nucleic-acid assay; settings: Bos taurus; note: unit not given here
[55] = test system: Staphylococcus epidermidis; experiment: Phototoxicity against Staphylococcus albus at 10 ug/disk in presence of long wave UV light; format: functional, organism-based
[56] = test system: Proteus mirabilis; experiment: Phototoxicity against Proteus mirabilis UBC 5 at 10 ug/disk in presence of cool-white fluorescent light; format: functional, organism-based
[57] = test system: Nannizzia gypsea; experiment: Phototoxicity against Microsporum gypseum at 10 ug/disk in presence of cool-white fluorescent light; format: functional, organism-based
[58] = test system: Sporobolomyces; experiment: Phototoxicity against Sporobolomyces sp. Y138 at 10 ug/disk in presence of cool-white fluorescent light; format: functional, organism-based
[59] = test system: DNA; experiment: Photochemical activity against denatured calf thymus DNA at 10 ug after UV irradiation with 10.67 Joules/cm'2 for 120 mins by hyperchromicity test; format: nucleic-acid assay; settings: Bos taurus; note: unit not given here
[60] = test system: Sporobolomyces; experiment: Phototoxicity against Sporobolomyces sp. Y138 at 10 ug/disk in dark; format: functional, organism-based
[61] = test system: Microsporum canis; experiment: Phototoxicity against Microsporum canis at 10 ug/disk in presence of cool-white fluorescent light; format: functional, organism-based
[62] = test system: Bacillus subtilis; experiment: Phototoxicity against Bacillus subtilis at 10 ug/disk in dark; format: functional, organism-based
[63] = test system: Pseudomonas fluorescens; experiment: Phototoxicity against Pseudomonas fluorescens at 10 ug/disk in dark; format: functional, organism-based
[64] = test system: Kocuria rosea; experiment: Phototoxicity against Micrococcus roseus UBC 289 at 10 ug/disk in presence of cool-white fluorescent light; format: functional, organism-based

COc1c2occc2cc2ccc(=O)oc12 [METHOXSALEN]
20 mm: zone of inhibition at 5 µg/disc [30]
18 mm: zone of inhibition at 5 µg/disc [49]
13 mm: zone of inhibition at 5 µg/disc [52]
inactive: Activity [2] | Activity [5] | Activity [6] | Activity [10] | Activity [11] | Activity [13] | Activity [14] | Activity [18] | Activity [24] | Activity [25] | Activity [29] | Activity [33] | Activity [35] | Activity [37] | Activity [39] | Activity [41] | Activity [45] | Activity [50] | Activity [51] | Activity [53] | Activity [56] | Activity [60] | Activity [62] | Activity [63] | Activity [64]
0.18: Activity [4] | Activity [8] | Activity [40] | Activity [46]
0.17: Activity [23] | Activity [32] | Activity [42] | Activity [48] | Activity [54] | Activity [59]
active: Activity [1] | Activity [3] | Activity [7] | Activity [9] | Activity [12] | Activity [15] | Activity [16] | Activity [17] | Activity [21] | Activity [22] | Activity [26] | Activity [27] | Activity [28] | Activity [31] | Activity [34] | Activity [36] | Activity [43] | Activity [44] | Activity [47] | Activity [55] | Activity [57] | Activity [58] | Activity [61]
15 mm: zone of inhibition at 5 µg/disc [38]
17 mm: zone of inhibition at 5 µg/disc [19] | zone of inhibition at 5 µg/disc [20]
